Consider 24 compounds from patent US11014917B2, “5-fluoro-c-(aryl or heterocyclyl)-glycoside derivatives useful as dual SGLT1 / SGLT2 modulators” (Janssen Pharmaceutica NV, priority 2017, dated 2021).

In one experiment the target is T1, human SGLT1 (Homo sapiens, UniProt P13866).
T1 construct: expressed in transfected cells
T1 sequence (P13866 1-664): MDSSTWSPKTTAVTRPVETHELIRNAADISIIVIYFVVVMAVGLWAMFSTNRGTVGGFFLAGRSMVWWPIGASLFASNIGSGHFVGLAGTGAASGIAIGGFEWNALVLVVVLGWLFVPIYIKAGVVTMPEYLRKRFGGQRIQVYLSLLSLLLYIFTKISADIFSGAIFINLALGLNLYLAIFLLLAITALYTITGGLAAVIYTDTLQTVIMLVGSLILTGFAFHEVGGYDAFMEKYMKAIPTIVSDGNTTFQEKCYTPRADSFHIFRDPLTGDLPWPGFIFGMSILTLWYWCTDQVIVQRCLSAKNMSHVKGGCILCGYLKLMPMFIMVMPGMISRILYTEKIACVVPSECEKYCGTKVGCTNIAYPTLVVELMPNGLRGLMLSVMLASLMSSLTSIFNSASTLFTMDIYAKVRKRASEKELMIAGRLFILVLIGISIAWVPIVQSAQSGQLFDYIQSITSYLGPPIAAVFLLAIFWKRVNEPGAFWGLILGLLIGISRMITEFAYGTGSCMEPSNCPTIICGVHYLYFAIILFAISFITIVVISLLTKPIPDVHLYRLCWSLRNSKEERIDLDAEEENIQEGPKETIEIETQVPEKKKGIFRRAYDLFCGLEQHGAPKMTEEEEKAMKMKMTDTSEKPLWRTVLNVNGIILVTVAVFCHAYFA
The experiment can be described thus: SGLT1 assay: Na-dependent 14C-AMG uptake in CHO-K1 cells stably expressing human SGLT1. The format is cell-based. Conditions: for IC50: average if tested more than once. On the procedure:
(§1) The ability of the compounds of formula (I) of the present invention to treat an SGLT-mediated condition was determined using the following procedures:
(§2) SGLT1 and SGLT2 were cloned in form of cDNA from human small intestine (Genbank M24847), and from human kidney (Genbank M95549), respectively. Subsequently, each full cDNA was subcloned into pcDNA with each construct's integrity verified through follow-on sequencing. To generate CHO-K1 cells that stably express human SGLT1 or human SGLT2, CHO-K1 cells were transfected using DMRIE-C reagent (Life Technologies, Gaithersburg, Md.). Transfected cells were then selected in the presence of 500 μg/ml of the Geneticin (G418 Cellgro Catalog No. 30234-Cl)
(§3) Individual clones were then characterized using the following cell-based assay for sodium-dependent glucose transport:
(§4) Inhibition of SGLT1 and SGLT2 activity was assessed in CHO K1 cells stably expressing either human SGLT1 or SGLT2, using the SGLT specific glucose analog methyl-glucopyranoside (Sigma Catalog No. M-9376). Cells were plated (45,000 cells/well) in white wall 96-well plates (COSTAR, Cat #3903) for 24 hours in growth medium, then a final concentration of 10 mM Na-Butyrate (ALDRICH Cat #30341-0) was added. The cells were incubated for 24 hours. On the day of the assay, cells were rinsed and treated with test compounds (at concentrations of 0.001 μM to 10 μM) in assay buffer (50 mM HEPES, 20 mM Tris base, 5 mM KCl, 1 mM MgCl2, 1 mM CaCl2 and 137 mM NaCl, pH 7.4) for 10 minutes. Cells were then incubated with ^14C-a-methyl-d-glucopyranoside (AMG, Amersham Catalog No. CFB 76), using 0.07 μCi per well in 500 μM AMG final concentration. The cells were incubated for 2 hours at 37° C. with 5% CO2 and washed two times with ice-cold Phosphate Buffer Solution (Cellgro Catalog No. 21030-CV). The cells were then solubilized by adding 60 μl of MICROSCINT™20 and the Na-dependent ^14C-AMG uptake was quantified by measuring radioactivity. Plates were counted in a TopCount (Packard, Meriden, Conn.)
(§5) Representative compounds of the present invention were tested according to the procedures as described in Biological Example 1 and 2 above, with results as listed in Table 5, below. Results are reported as the %-inhibition or IC50 value. Variability for the functional assay was typically within 20%.

The target of another experiment is T2, human SGLT2 (Homo sapiens, UniProt P31639).
T2 construct: expressed in transfected cells
T2 sequence (P31639 1-672): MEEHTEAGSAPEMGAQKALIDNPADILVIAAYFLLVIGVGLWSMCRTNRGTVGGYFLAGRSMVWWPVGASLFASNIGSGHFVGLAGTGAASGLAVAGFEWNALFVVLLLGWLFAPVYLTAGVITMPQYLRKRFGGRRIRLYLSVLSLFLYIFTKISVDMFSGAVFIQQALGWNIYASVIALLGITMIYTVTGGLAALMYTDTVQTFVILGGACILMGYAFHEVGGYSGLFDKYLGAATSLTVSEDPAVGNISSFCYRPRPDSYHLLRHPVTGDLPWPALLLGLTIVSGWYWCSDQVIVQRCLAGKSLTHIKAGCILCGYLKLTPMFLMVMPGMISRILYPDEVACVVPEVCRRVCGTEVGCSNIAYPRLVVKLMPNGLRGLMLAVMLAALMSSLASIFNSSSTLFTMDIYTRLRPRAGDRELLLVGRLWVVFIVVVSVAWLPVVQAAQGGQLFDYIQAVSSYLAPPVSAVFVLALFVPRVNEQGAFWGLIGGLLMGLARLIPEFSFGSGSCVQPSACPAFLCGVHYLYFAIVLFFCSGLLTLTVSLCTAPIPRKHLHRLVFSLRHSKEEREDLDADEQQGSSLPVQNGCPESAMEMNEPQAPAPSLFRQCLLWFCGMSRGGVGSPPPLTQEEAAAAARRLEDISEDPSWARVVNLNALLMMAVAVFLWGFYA
The experiment can be described thus: SGLT2 assay: Na-dependent 14C-AMG uptake in CHO-K1 cells stably expressing human SGLT2. The format is cell-based. The settings on record: for IC50: average if tested more than once. On the procedure: as §1, §2, §3, §4, §5

With `COc1cc(Cl)c([C@@H]2O[C@H](CC#N)[C@@H](F)[C@H](O)[C@H]2O)cc1Cc1cc2ccccc2s1` [Compound 26], the IC50 (as a rule, the concentration that gives 50% inhibition) against human SGLT1 amounted to 847 nM; at human SGLT2, 982 nM.

Consider `OC[C@H]1O[C@@H](c2cc(Cc3cc4ccccc4s3)c(C3CC3)cc2O)[C@H](O)[C@@H](O)[C@@H]1F` [Compound 29], for which the results for the IC50 against human SGLT1 and at human SGLT2 were 13 nM and 62 nM, respectively.

As for `CCc1cc(O)c([C@@H]2O[C@H](CO)[C@@H](F)[C@H](O)[C@H]2O)cc1Cc1cc2ccccc2s1` [Compound 31], the results for the IC50 against human SGLT1 and on human SGLT2 were 9 nM and 19 nM, respectively.

For `COc1cc(CO)c([C@@H]2O[C@H](CO)[C@@H](F)[C@H](O)[C@H]2O)cc1Cc1cc2ccccc2s1` [Compound 34], the SGLT1 %-inhibition on human SGLT1 (@ 0.3 μM) is recorded as 38.6% @ 0.3 μM. This compound also yielded an SGLT2 %-inhibition on human SGLT2 (@ 0.3 μM) of 27.6% @ 0.3 μM.

For `Cc1cc(O)c([C@@H]2O[C@H](C(C)(C)O)[C@@H](F)[C@H](O)[C@H]2O)cc1Cc1cc2ccccc2s1` [Compound 39], the IC50 stood at 381 nM against human SGLT1 and 123 nM against human SGLT2.

Regarding `Cc1cc(CO)c([C@@H]2O[C@H](CO)[C@@H](F)[C@H](O)[C@H]2O)cc1Cc1cc2ccccc2s1` [Compound 42], the IC50 against human SGLT1 is 98 nM; against human SGLT2, 10 nM.

In the case of `OC[C@H]1O[C@@H](c2cc3c(c(Cc4ccc5c(c4)OCCO5)c2)OCC3)[C@H](O)[C@@H](O)[C@@H]1F` [Compound 54], the IC50 against human SGLT1 was 69 nM; against human SGLT2 it was 11 nM.

As to `OC[C@H]1O[C@@H](c2cc3c(c(Cc4ccc5c(c4)CCCO5)c2)OCC3)[C@H](O)[C@@H](O)[C@@H]1F` [Compound 56], the IC50 against human SGLT1 was found to be 523 nM; at human SGLT2 it was 12 nM.

Consider `OC[C@H]1O[C@@H](c2cc(Cc3cc4ccccc4s3)c3c(c2O)CCO3)[C@H](O)[C@@H](O)[C@@H]1F` [Compound 59], for which the IC50 at human SGLT1 stood at 31 nM; on human SGLT2 it was 9 nM.

For `OC[C@H]1O[C@@H](c2cc(Cc3ccc4c(c3)OCCO4)c3c(c2O)CCO3)[C@H](O)[C@@H](O)[C@@H]1F` [Compound 61, (2S,3R,4R,5S,6R)-2-(7-((2,3-dihydrobenzo[b][1,4]dioxin-6-yl)methyl)-4-hydroxy-2,3-dihydrobenzofuran-5-yl)-5-fluoro-6-(hydroxymethyl)tetrahydro-2H-pyran-3,4-diol], the 50% inhibitory concentration (IC50) at human SGLT1 stood at 14 nM; against human SGLT2 it was 3 nM.

As for `CCc1ccc(Cc2cc([C@@H]3O[C@H](CO)[C@@H](F)[C@H](O)[C@H]3O)c(O)c3c2OCC3)cc1` [Compound 62], the IC50 was found to be 48 nM against human SGLT1 and 4 nM against human SGLT2.

`CCOc1ccc(Cc2cc([C@@H]3O[C@H](CO)[C@@H](F)[C@H](O)[C@H]3O)c(O)c3c2OCC3)cc1` [Compound 63]: the IC50 against human SGLT1 came to 122 nM; at human SGLT2, 4 nM.

`CCOC(=O)N1CCc2sc(Cc3cc([C@@H]4O[C@H](CO)[C@@H](F)[C@H](O)[C@H]4O)c(O)cc3C)cc2C1` [Compound 64]: the IC50 worked out at 156 nM at human SGLT1 and 36 nM against human SGLT2.

For `COc1c([C@@H]2O[C@H](CO)[C@@H](F)[C@H](O)[C@H]2O)cc(Cc2ccc3c(c2)OCCO3)c2c1CCO2` [Compound 65, (2S,3R,4R,5S,6R)-2-(7-((2,3-dihydrobenzo[b][1,4]dioxin-6-yl)methyl)-4-methoxy-2,3-dihydrobenzofuran-5-yl)-5-fluoro-6-(hydroxymethyl)tetrahydro-2H-pyran-3,4-diol], the results for the IC50 against human SGLT1 and against human SGLT2 were 43 nM and 9 nM, respectively.

For `Cc1cc(O)c([C@@H]2O[C@H](CO)[C@@H](F)[C@H](O)[C@H]2O)cc1Cc1cc2c(s1)CCN(C(=O)N1CCCC1)C2` [Compound 66, (2-(5-((2S,3R,4R,5S,6R)-5-fluoro-3,4-dihydroxy-6-(hydroxymethyl)tetrahydro-2H-pyran-2-yl)-4-hydroxy-2-methylbenzyl)-6,7-dihydrothieno[3,2-c]pyridin-5(4H)-yl)(pyrrolidin-1-yl)methanone], the values for the IC50 against human SGLT1 and at human SGLT2 were 40 nM and 14 nM, respectively.

Compound `Cc1cc(O)c([C@@H]2O[C@H](CO)[C@@H](F)[C@H](O)[C@H]2O)cc1Cc1cc2c(s1)CCN(C(=O)N1CCOCC1)C2` [Compound 67] gave an SGLT1 %-inhibition on human SGLT1 (@ 0.3 μM) of 64.9% @ 0.3 μM. Further, the SGLT2 %-inhibition at human SGLT2 (@ 0.3 μM) is reported as 57.5% @ 0.3 μM.

On to `Cc1c(Cc2cc3ccccc3s2)cc([C@@H]2O[C@H](CO)[C@@H](F)[C@H](O)[C@H]2O)c2c1CCO2` [Compound 68], for which the IC50 was 55 nM against human SGLT1 and 21 nM against human SGLT2.

The compound `COc1cc(C)c(Cc2cc3c(s2)CCN(C(=O)N2CCOCC2)C3)cc1[C@@H]1O[C@H](CO)[C@@H](F)[C@H](O)[C@H]1O` [Compound 69] displayed an SGLT1 %-inhibition at human SGLT1 (@ 0.3 μM) of 20.4% @ 0.3 μM. In addition, the SGLT2 %-inhibition on human SGLT2 (@ 0.3 μM) is listed as 60.3% @ 0.3 μM.

Turning to `O=C(N1CCCC1)N1CCc2sc(Cc3cc([C@@H]4O[C@H](CO)[C@@H](F)[C@H](O)[C@H]4O)cc4c3OCC4)cc2C1` [Compound 70], the IC50 came to 100 nM on human SGLT1 and 162 nM against human SGLT2.

For `COC(=O)N1CCc2sc(Cc3cc([C@@H]4O[C@H](CO)[C@@H](F)[C@H](O)[C@H]4O)c(O)cc3Cl)cc2C1` [Compound 73], the IC50 at human SGLT1 was found to be 240 nM; against human SGLT2 it was 48 nM.

At human SGLT1 (@ 0.3 μM), `CC(=O)N1CCc2sc(Cc3cc([C@@H]4O[C@H](CO)[C@@H](F)[C@H](O)[C@H]4O)c(O)cc3Cl)cc2C1` [Compound 74] showed an SGLT1 %-inhibition of 65.5% @ 0.3 μM. For the same compound, at human SGLT2 (@ 0.3 μM), the SGLT2 %-inhibition was found to be 65.2% @ 0.3 μM.

On to `OCC1COc2c(Cc3ccc4c(c3)OCCO4)cc([C@@H]3O[C@H](CO)[C@@H](F)[C@H](O)[C@H]3O)cc21` (stereo partly drawn) [Compound 75, (2S,3R,4R,5S,6R)-2-(7-((2,3-dihydrobenzo[b][1,4]dioxin-6-yl)methyl)-3-(hydroxymethyl)-2,3-dihydrobenzofuran-5-yl)-5-fluoro-6-(hydroxymethyl)-tetrahydro-2H-pyran-3,4-diol], for which the inhibition (as a rule, how much of the control response was suppressed) at 0.3 µM at human SGLT1 (@ 0.3 μM) was determined as 61.9%; against human SGLT2 (@ 0.3 μM) it was 43.7%.

At human SGLT1 (@ 0.3 μM), `COC(=O)N1CCc2sc(Cc3cc([C@@H]4O[C@H](CO)[C@@H](F)[C@H](O)[C@H]4O)c(OC)cc3Cl)cc2C1` [Compound 76] came in with an SGLT1 %-inhibition of 28.6% @ 0.3 μM. The compound also registered an SGLT2 %-inhibition on human SGLT2 (@ 0.3 μM) of 72.2% @ 0.3 μM.

`COc1cc(Cl)c(Cc2cc3c(s2)CCN(C(C)=O)C3)cc1[C@@H]1O[C@H](CO)[C@@H](F)[C@H](O)[C@H]1O` [Compound 77]: the SGLT1 %-inhibition on human SGLT1 (@ 0.3 μM) stood at 30.3% @ 0.3 μM. At human SGLT2 (@ 0.3 μM), this compound registered an SGLT2 %-inhibition of 69.9% @ 0.3 μM.
